# Results: US20250163052A1, “cGAS INHIBITORS AND USES THEREOF” (Cornell University, priority 2022, published 2025)
# How the values were obtained:
# h-cGAS = h-cGAS (Homo sapiens, UniProt Q8N884); assay: Cell-free human cGAS enzyme inhibition assay (ATP depletion, Kinase-Glo Max); format: biochemical; details: 3 h; for inhibition at 10 µM: read-out: h-cGAS, conc. 10 μM; for inhibition at 1 µM: read-out: h-cGAS, conc. 1 μM
# Experimental: (§1) Cell-free mouse and human cGAS enzyme inhibition assay (Table 2). Activity of all compounds (in Table 1) against m-cGAS (30 nM) and or h-cGAS, (100 nM) was determined by measuring the conversion of ATP and GTP (100 μM each) to cGAMP in the presence of dsDNA (5 ug/mL) in a reaction buffer composed of Tris-HCl (20 mM, pH7.4), NaCl (150 mM), MnCl2 (0.2 mM, h-cGAS) or MgCl2 (5 mM, m-cGAS) and Tween-20 (0.01%), and the remaining ATP concentration using Kinase-Glo®Max Luminescent Kinase Assay (Promega, Madison, WI), as described (Lama, et. al., 2019). Briefly, 10 μl of a master mix of 0.4 mM ATP, 0.4 mM GTP, 0.02 mg/mL dsDNA in the reaction buffer supplemented with 2 mM DTT was added to reaction wells containing TDI-6570 or TDI-8246 (2× of the desired concentration) in the same buffer ([…]) using a Thermo 8-channel Multidrop Combi dispenser. Next, 10 μl of a 4×m-cGAS (0.120 μM) or h-cGAS (0.4 μM) solution in the reaction buffer supplemented with 2 mM DTT was added to appropriate wells. Similar sets of reactions without cGAS or the inhibitor was set by adding the buffer alone. The reactions with the plates sealed were incubated at 37° C. (1 hour for m-cGAS and 3 hours for h-cGAS) and stopped by addition of 40 μl of the Kinase-Glo®Max. The luminescence was recorded in relative light units (RLUs) using a Biotek Synergy H1 Hybrid plate reader (BioTek, Winooski, VT). […] All reactions were run in triplicates and calculated using GraphPad Prism 9. The values represent mean IC50±S.D.
# m-cGAS = m-cGAS (Mus musculus, UniProt Q8C6L5); assay: Cell-free mouse cGAS enzyme inhibition assay (ATP depletion, Kinase-Glo Max); format: biochemical; details: 1 h; for inhibition at 10 µM: read-out: m-cGAS, conc. 10 μM; for inhibition at 1 µM: read-out: m-cGAS, conc. 1 μM
# m-cGAS, sequence (Q8C6L5 whole entry): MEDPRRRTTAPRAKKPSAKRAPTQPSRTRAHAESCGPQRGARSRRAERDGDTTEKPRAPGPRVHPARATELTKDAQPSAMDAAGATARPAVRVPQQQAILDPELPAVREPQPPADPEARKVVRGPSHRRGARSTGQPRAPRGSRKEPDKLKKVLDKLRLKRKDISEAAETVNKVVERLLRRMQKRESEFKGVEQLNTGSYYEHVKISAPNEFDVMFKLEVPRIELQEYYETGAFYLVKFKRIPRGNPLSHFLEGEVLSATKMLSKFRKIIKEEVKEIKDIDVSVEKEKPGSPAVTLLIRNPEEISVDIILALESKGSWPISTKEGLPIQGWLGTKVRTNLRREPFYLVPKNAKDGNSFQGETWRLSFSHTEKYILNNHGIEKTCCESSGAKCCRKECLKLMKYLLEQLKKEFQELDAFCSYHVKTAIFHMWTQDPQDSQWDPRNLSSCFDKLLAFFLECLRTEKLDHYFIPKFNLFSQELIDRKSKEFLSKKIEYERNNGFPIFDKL
# Experimental: as §1
# IFNB = assay: THP1-Dual cells transfected with DNA, Ifnb expression (Quantiluc); format: cell-based; details: Homo sapiens; for inhibition at 10 µM: THP-1, 10 μM; for inhibition at 30 µM: THP-1, 30 μM
# Experimental: (§2) Evaluation of active cGAS inhibitors in THP1 cells (Table 3). Cellular activity of all compounds (in Table 3) was determined using THP1-Dual™ cells as described (Lama et. al., 2019). THP1-Dual™ cells (Invivogen) (50000 cells in 100 μl media) were seeded into each well of a 96-well plate and treated with compounds at various dilution for 4 hours. Subsequently, cells were transfected with DNA (2 ug/ml) and lipofectamine and incubate the cells were incubated overnight. Ifnb expression was measured in cell supernatant using Quantiluc, nfkb expression was determined using Quantiblue, and cell viability using Promega® CellTiter-Glo®.
# THP1 cells = assay: THP1-Dual cells, cell viability (CellTiter-Glo); format: cell-based
# Experimental: as §2
# h-cGAS, sequence (Q8N884 whole entry): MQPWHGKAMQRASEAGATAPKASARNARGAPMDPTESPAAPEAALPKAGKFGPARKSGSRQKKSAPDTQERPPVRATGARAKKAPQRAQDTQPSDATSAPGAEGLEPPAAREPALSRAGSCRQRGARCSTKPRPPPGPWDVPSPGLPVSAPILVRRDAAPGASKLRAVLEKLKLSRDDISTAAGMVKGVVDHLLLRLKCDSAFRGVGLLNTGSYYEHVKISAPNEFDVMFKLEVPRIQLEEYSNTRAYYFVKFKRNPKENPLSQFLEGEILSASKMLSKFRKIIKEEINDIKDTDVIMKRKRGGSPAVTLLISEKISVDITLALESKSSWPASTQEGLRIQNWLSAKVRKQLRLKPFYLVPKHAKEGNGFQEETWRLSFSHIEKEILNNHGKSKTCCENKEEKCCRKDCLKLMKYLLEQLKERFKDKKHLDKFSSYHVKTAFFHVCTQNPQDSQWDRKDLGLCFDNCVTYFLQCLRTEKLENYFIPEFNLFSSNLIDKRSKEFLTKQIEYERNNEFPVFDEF
Structure (SMILES),inhibition at 10 µM (h-cGAS) [%],inhibition at 10 µM (m-cGAS) [%],inhibition at 1 µM (h-cGAS) [%],inhibition at 1 µM (m-cGAS) [%],inhibition at 10 µM (IFNB) [%],inhibition at 30 µM (IFNB) [%],Cell viability 10 μM (THP1 cells),Cell viability 30 μM (THP1 cells)
Cn1c2c(c3c(-c4ccc(O)nc4)cc(Cl)c(F)c31)CN(C(=O)CO)CC2 [Compound 2],0 to 24,0 to 24,,,,,,
CC(C)(C)OC(=O)N1CCCC1C(=O)N1CCc2[nH]c3c(Cl)c(Cl)cc(-c4ccc(N)nc4)c3c2C1 (stereo not shown) [Compound 13],0 to 24,0 to 24,,,,,,
Cn1c2c(c3c(-c4ccc(N)nc4)cc(Cl)c(Cl)c31)CN(C(=O)C1CCCN1C(=O)OC(C)(C)C)CC2 (stereo not shown) [Compound 14],0 to 24,0 to 24,,,,,,
Cn1c2c(c3c(-c4ccn[nH]4)cc(Cl)c(Cl)c31)CN(C(=O)C1CCCN1C(=O)OC(C)(C)C)CC2 (stereo not shown) [Compound 15],0 to 24,0 to 24,,,,,,
Cn1c2c(c3c(-c4ccn[nH]4)cc(Cl)c(Cl)c31)CN(C(=O)C1CCCN1)CC2 (stereo not shown) [Compound 18],0 to 24,0 to 24,,,,,,
Nc1ccc(-c2cc(Cl)c(Cl)c3[nH]c4c(c23)CN(C(=O)C2(N)CC2)CC4)cn1 [Compound 19],0 to 24,0 to 24,,,,,,
O=C(CO)N1CCc2oc3c(Cl)c(Cl)cc(-c4cc[nH]n4)c3c2C1 [Compound 28],50 to 74,,25 to 49,,50 to 74,50 to 74,"+++ (+, ++, and +++ mean the compound respectively shows 25-49%; 50-74%; or 75-100% viability to cells)","+++ (+, ++, and +++ mean the compound respectively shows 25-49%; 50-74%; or 75-100% viability to cells)"
CC(C)(N)C(=O)N1CCc2oc3c(Cl)c(Cl)cc(-c4cc[nH]n4)c3c2C1 [Compound 34],50 to 74,,25 to 49,,75 to 100,75 to 100,"+++ (+, ++, and +++ mean the compound respectively shows 25-49%; 50-74%; or 75-100% viability to cells)","− (Cell viability <24%, in THP1 cells is expressed as “−”)"
NCC(=O)N1CCc2c(oc3c(Cl)c(Cl)cc(-c4cncnc4)c23)C1 [Compound 39],75 to 100,,0 to 24,,25 to 49,75 to 100,"+++ (+, ++, and +++ mean the compound respectively shows 25-49%; 50-74%; or 75-100% viability to cells)","+++ (+, ++, and +++ mean the compound respectively shows 25-49%; 50-74%; or 75-100% viability to cells)"
Cn1cc(-c2cc(Cl)c(Cl)c3oc4c(c23)CCN(C(=O)CN)C4)cn1 [Compound 40],75 to 100,,50 to 74,,75 to 100,75 to 100,"+++ (+, ++, and +++ mean the compound respectively shows 25-49%; 50-74%; or 75-100% viability to cells)","− (Cell viability <24%, in THP1 cells is expressed as “−”)"
Cn1ccc(-c2cc(Cl)c(Cl)c3oc4c(c23)CCN(C(=O)CN)C4)n1 [Compound 41],75 to 100,,50 to 74,,50 to 74,75 to 100,"+++ (+, ++, and +++ mean the compound respectively shows 25-49%; 50-74%; or 75-100% viability to cells)","− (Cell viability <24%, in THP1 cells is expressed as “−”)"
CC(C)(N)C(=O)N1CCc2sc3c(Cl)c(Cl)cc(-c4cc[nH]n4)c3c2C1 [Compound 55],0 to 24,0 to 24,,,,,,
O=C(CO)N1CCc2nc3c(Cl)c(Cl)cc(-c4cncnc4)n3c2C1 [Compound 98],0 to 24,0 to 24,,,,,,
NCC(=O)N1CCc2nc3c(Cl)c(Cl)cc(-c4cncnc4)n3c2C1 [Compound 100],0 to 24,0 to 24,,,,,,
Cn1cc(-c2cc(Cl)c(Cl)c3nc4c(n23)CN(C(=O)CN)CC4)cn1 [Compound 101],0 to 24,0 to 24,,,,,,

# More lines, main results first:
inhibition at 10 µM (h-cGAS) [%],inhibition at 10 µM (m-cGAS) [%],inhibition at 1 µM (h-cGAS) [%],inhibition at 1 µM (m-cGAS) [%],Structure (SMILES),inhibition at 10 µM (IFNB) [%],inhibition at 30 µM (IFNB) [%],Cell viability 10 μM (THP1 cells),Cell viability 30 μM (THP1 cells)
75 to 100,25 to 49,50 to 74,,Nc1ccc(-c2cc(Cl)c(Cl)c3oc4c(c23)CN(C(=O)CO)CC4)cn1 [Compound 26],50 to 74,75 to 100,"+++ (+, ++, and +++ mean the compound respectively shows 25-49%; 50-74%; or 75-100% viability to cells)","+++ (+, ++, and +++ mean the compound respectively shows 25-49%; 50-74%; or 75-100% viability to cells)"
75 to 100,,25 to 49,,O=C(CO)N1CCc2oc3c(Cl)c(Cl)cc(-c4cn[nH]c4)c3c2C1 [Compound 29],50 to 74,75 to 100,"+++ (+, ++, and +++ mean the compound respectively shows 25-49%; 50-74%; or 75-100% viability to cells)","+++ (+, ++, and +++ mean the compound respectively shows 25-49%; 50-74%; or 75-100% viability to cells)"
50 to 74,,0 to 24,,O=C(CO)N1CCc2oc3c(Cl)c(Cl)cc(-c4ccco4)c3c2C1 [Compound 30],< 24,25 to 49,"+++ (+, ++, and +++ mean the compound respectively shows 25-49%; 50-74%; or 75-100% viability to cells)","+++ (+, ++, and +++ mean the compound respectively shows 25-49%; 50-74%; or 75-100% viability to cells)"
75 to 100,,50 to 74,,O=C(CO)N1CCc2oc3c(Cl)c(Cl)cc(-c4nccs4)c3c2C1 [Compound 31],50 to 74,50 to 74,"+++ (+, ++, and +++ mean the compound respectively shows 25-49%; 50-74%; or 75-100% viability to cells)","+++ (+, ++, and +++ mean the compound respectively shows 25-49%; 50-74%; or 75-100% viability to cells)"
50 to 74,50 to 74,0 to 24,0 to 24,O=C(CO)N1CCc2sc3c(Cl)c(Cl)cc(-c4cncnc4)c3c2C1 [Compound 47],,,,
0 to 24,25 to 49,,,Nc1ccc(-c2cc(Cl)c(Cl)c3sc4c(c23)CN(C(=O)CO)CC4)cn1 [Compound 49],,,,
0 to 24,0 to 24,,,O=C(CO)N1CCc2sc3c(Cl)c(Cl)cc(-c4cc[nH]n4)c3c2C1 [Compound 50],,,,
50 to 74,75 to 100,0 to 24,,O=C(CO)N1CCc2c(sc3c(Cl)c(Cl)ccc23)C1 [Compound 58],,,,
25 to 49,50 to 74,,0 to 24,Cn1ccc(-c2cc(Cl)c(Cl)c3sc4c(c23)CCN(C(=O)CO)C4)n1 [Compound 60],,,,
25 to 49,,,,O=C(CO)N1CCc2c(sc3c(Cl)c(Cl)cc(-c4cc[nH]n4)c23)C1 [Compound 61],,,,
25 to 49,,0 to 24,,O=C(CO)N1CCc2c(sc3c(Cl)c(Cl)cc(-c4ccco4)c23)C1 [Compound 64],,,,
25 to 49,75 to 100,,0 to 24,O=C(CO)N1CCc2c(sc3c(Cl)c(Cl)cc(-c4cncnc4)c23)C1 [Compound 65],,,,
0 to 24,,,,CNc1ccc(-c2cc(Cl)c(Cl)c3sc4c(c23)CCN(C(=O)CO)C4)cn1 [Compound 66],,,,
25 to 49,,,,O=C(CO)N1CCc2c(sc3c(Cl)c(Cl)cc(-c4nccs4)c23)C1 [Compound 67],,,,
0 to 24,,,,O=C(CO)N1CCc2c(sc3c(Cl)c(Cl)cc(-c4cccnc4)c23)C1 [Compound 68],,,,
0 to 24,,,,O=C(CO)N1CCc2c(sc3c(Cl)c(Cl)cc(-c4ccncc4)c23)C1 [Compound 69],,,,
0 to 24,,,,O=C(CO)N1CCc2c(sc3c(Cl)c(Cl)cc(-c4cncs4)c23)C1 [Compound 70],,,,
50 to 74,,0 to 24,,CC(C)(N)C(=O)N1CCc2c(sc3c(Cl)c(Cl)cc(-c4cn[nH]c4)c23)C1 [Compound 85],75 to 100,75 to 100,"+ (+, ++, and +++ mean the compound respectively shows 25-49%; 50-74%; or 75-100% viability to cells)","− (Cell viability <24%, in THP1 cells is expressed as “−”)"
